Earlier results on 1 substance are cited in patent US6399785B1, “Multiply-substituted fullerenes” (C-Sixty, Inc., priority 1995, dated 2002).

Like-named read-outs stand apart in the source and are kept apart here.

In data set [1] the test system is HIV. Particulars: human PBMC acutely infected with HIV, in vitro.
Data set [2] has as its system HIV. To be noted: H9 cells chronically infected with HIV, in vitro.

Take “bis (monosuccinimide) derivative of p,p′-bis (2-aminoethyl) diphenyl C60”: the antiviral activity result in the data set with HIV [1] and with HIV [2] was “showed antiviral activity” throughout.
